Results: publication PMC2866539, “HLA Class I Binding 9mer Peptides from Influenza A Virus Induce CD4^+ T Cell Responses” (PLoS ONE, 2010)
Where no end group is shown, it is not given here.

Tests used:
[1] = tested on: PBMC from HLA-matched donors; type: cell-based, human
[2] = tested on: PBMC from responding donors; type: cell-based, human
[3] = tested on: freshly harvested PBMC; conditions: cited from earlier work
[4] = biological target: T1, DRA1*0101/DRB1*0101 (Homo sapiens, UniProt P01903+P01911, A100R/D57E/F55L/F60I/F76Y/I96L/L162R/M171V/P40L/Q125E/R42F/V115G/Y59C); test: biochemical; type: binding
T1 construct: made in house

[5] = biological target: DRA1*0101/DRB1*0301 (Homo sapiens, UniProt P01903+P01911, A100K/A102G/A103R/A169T/F55Y/I96L/K41T/L162R/M171V/P40S/Q125H/Q178H/Q39Y/R42S/S66N/T106N/T262R/W38E/Y61H); test: biochemical; type: binding
Chain of DRA1*0101/DRB1*0301 (P01903 26-254 limits assumed, other chains not shown): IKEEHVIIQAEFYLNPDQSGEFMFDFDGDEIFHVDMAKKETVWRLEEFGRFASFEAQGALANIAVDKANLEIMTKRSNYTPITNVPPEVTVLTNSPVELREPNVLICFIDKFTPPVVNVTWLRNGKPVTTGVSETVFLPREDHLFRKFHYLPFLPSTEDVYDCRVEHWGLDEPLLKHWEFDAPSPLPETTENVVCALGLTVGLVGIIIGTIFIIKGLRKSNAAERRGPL

[6] = biological target: DRA1*0101/DRB1*0302 (Homo sapiens, UniProt P01903+P01911, A100K/A102G/A103R/A169T/D57E/F76Y/I96L/K41T/L162R/M171V/P40S/Q125H/Q178H/Q39Y/R42S/S66N/T106N/T262R/V115G/W38E/Y61H); test: biochemical; type: binding
[7] = biological target: T2, DRA1*0101/DRB1*0401 (Homo sapiens, UniProt P01903+P01911, A100K/A169T/F76Y/I96L/K127E/L162R/M171V/N62H/P40V/Q125Y/R42H/S133A/S149N/S66Y/V115G/V209L/W38E); test: biochemical; type: binding
T2 construct: made in house

[8] = biological target: DRA1*0101/DRB3*0301 (Homo sapiens, UniProt P01903+P79483, A169T/A212P/D57E/G115V/L67V/Q178H/R103Q/R40L/Y55F); test: biochemical; type: binding
Chain of DRA1*0101/DRB3*0301 (P01903 26-254 limits assumed): as the sequence (P01903 26-254 limits assumed, other chains not shown) above
Chain of DRA1*0101/DRB3*0301 (P79483 30-266 R40L/Y55F/D57E/L67V/R103Q/G115V/A169T/Q178H/A212P limits assumed): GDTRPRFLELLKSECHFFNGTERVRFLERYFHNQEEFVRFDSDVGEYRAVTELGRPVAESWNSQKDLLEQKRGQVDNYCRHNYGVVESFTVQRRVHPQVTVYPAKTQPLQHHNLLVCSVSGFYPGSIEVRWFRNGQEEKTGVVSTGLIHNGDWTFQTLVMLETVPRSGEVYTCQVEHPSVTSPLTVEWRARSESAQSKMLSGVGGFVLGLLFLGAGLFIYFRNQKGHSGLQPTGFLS

[9] = biological target: T3, DRA1*0101/DRB5*0101 (Homo sapiens, UniProt P01903+Q30154); test: biochemical; type: binding
T3 construct: made in house

[10] = biological target: T4, DPA1*0103/DPB1*0401 (Homo sapiens, UniProt P04440+P20036); test: biochemical; type: binding
T4 construct: made in house
T4 sequence (P20036 32-222 limits assumed): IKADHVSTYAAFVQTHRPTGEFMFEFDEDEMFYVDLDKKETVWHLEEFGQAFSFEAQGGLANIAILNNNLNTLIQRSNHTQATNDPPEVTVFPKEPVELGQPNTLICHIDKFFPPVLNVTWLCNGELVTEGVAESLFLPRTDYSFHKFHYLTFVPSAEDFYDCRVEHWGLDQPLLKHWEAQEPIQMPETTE
T4 sequence (P04440 30-225 limits assumed): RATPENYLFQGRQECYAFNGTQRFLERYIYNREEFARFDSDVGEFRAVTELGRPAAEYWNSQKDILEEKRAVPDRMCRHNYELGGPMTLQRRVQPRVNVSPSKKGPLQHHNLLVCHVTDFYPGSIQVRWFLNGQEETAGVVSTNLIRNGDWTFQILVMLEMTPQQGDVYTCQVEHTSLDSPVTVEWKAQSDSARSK

[11] = biological target: HLA-B7 (Homo sapiens, UniProt P01889); test: biochemical; type: binding
Chain of HLA-B7 (P01889 25-299): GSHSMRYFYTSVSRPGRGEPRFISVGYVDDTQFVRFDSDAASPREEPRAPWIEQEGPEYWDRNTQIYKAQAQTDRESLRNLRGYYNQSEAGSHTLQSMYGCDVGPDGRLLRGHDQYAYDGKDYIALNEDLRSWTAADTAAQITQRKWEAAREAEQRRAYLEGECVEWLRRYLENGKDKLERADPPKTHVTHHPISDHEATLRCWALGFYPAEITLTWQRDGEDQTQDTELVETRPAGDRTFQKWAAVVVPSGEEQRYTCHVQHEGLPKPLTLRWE
Chain of HLA-B7 (P61769 21-119, further chain): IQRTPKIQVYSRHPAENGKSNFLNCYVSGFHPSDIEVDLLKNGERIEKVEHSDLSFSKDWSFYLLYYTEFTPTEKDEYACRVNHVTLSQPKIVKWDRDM

[12] = biological target: HLA-A3 (Homo sapiens, UniProt P04439); test: biochemical
Chain of HLA-A3 (P04439 25-299): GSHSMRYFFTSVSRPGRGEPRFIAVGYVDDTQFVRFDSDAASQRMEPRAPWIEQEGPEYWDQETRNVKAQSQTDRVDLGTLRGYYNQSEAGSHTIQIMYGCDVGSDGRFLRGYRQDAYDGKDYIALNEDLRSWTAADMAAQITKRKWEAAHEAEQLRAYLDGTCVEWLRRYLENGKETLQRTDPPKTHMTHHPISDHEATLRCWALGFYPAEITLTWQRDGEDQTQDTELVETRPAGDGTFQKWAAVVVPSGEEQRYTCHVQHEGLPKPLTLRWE
Chain of HLA-A3 (P61769 21-119, further chain): as the sequence (P61769 21-119, further chain) above

## DPLVVAASI [PF-146]
[1]
  +Peptide, IFNγ spot forming cell numbers: 42±8 per 10^5 PBMC
[2]
  SFC/1×10^5 PBMC+Peptide, IVA12: 2±2 SFC/1×10^5 PBMC
  SFC/1×10^5 PBMC+Peptide, Isotype: 17±1 SFC/1×10^5 PBMC
  SFC/1×10^5 PBMC+Peptide, W6/32: 18±3 SFC/1×10^5 PBMC
[3]
  antigenicity in ELISPOT of Assarsson et al: failed to show antigenicity

## ETIVLLRAF [PF-113]
[4]
  Kd: 3.73 µM
[5]
  Kd: > 5 µM
[6]
  Kd: > 5 µM
[7]
  Kd: > 5 µM
[8]
  Kd: > 5 µM
[9]
  Kd: 0.78 µM
[10]
  Kd: > 5 µM

## IAPWYAFAL [PF-154]
[4]
  Kd: > 5 µM
[5]
  Kd: > 5 µM
[6]
  Kd: > 5 µM
[7]
  Kd: > 5 µM
[8]
  Kd: > 5 µM
[9]
  Kd: 1.7 µM
[10]
  Kd: > 5 µM

## ILWILDRLF [PF-140]
[1]
  +Peptide, IFNγ spot forming cell numbers: 17±4 per 10^5 PBMC
[2]
  SFC/1×10^5 PBMC+Peptide, IVA12: 1±1 SFC/1×10^5 PBMC
  SFC/1×10^5 PBMC+Peptide, Isotype: 32±3 SFC/1×10^5 PBMC
  SFC/1×10^5 PBMC+Peptide, W6/32: 43±19 SFC/1×10^5 PBMC

## IMLKANFSV [PF-103]
[4]
  Kd: 3.43 µM
[5]
  Kd: > 5 µM
[6]
  Kd: > 5 µM
[7]
  Kd: 1.39 µM
[8]
  Kd: 0.018 µM
[9]
  Kd: > 5 µM
[10]
  Kd: > 5 µM

## LMNELGVPF [PF-141]
[4]
  Kd: > 5 µM
[5]
  Kd: > 5 µM
[6]
  Kd: > 5 µM
[7]
  Kd: > 5 µM
[8]
  Kd: 4.01 µM
[9]
  Kd: > 5 µM
[10]
  Kd: > 5 µM

## LPFHNVHPL [PF-147]
[11]
  Kd: 0.006 µM
[4]
  Kd: > 5 µM
[5]
  Kd: > 5 µM
[6]
  Kd: > 5 µM
[7]
  Kd: > 5 µM
[8]
  Kd: > 5 µM
[9]
  Kd: 3.7 µM
[10]
  Kd: > 5 µM

## LPFQNVHPV [PF-150]
[11]
  Kd: 0.161 µM
[4]
  Kd: > 5 µM
[5]
  Kd: > 5 µM
[6]
  Kd: > 5 µM
[7]
  Kd: > 5 µM
[8]
  Kd: > 5 µM
[9]
  Kd: 1.2 µM
[10]
  Kd: > 5 µM

## LVSLGAISF [PF-148]
[4]
  Kd: 4.34 µM
[5]
  Kd: > 5 µM
[6]
  Kd: > 5 µM
[7]
  Kd: > 5 µM
[8]
  Kd: > 5 µM
[9]
  Kd: > 5 µM
[10]
  Kd: > 5 µM

## TIHDRIPHR [PF-116]
[12]
  Kd: 0.062 µM

## VTIGECPKY [PF-110]
[1]
  +Peptide, IFNγ spot forming cell numbers: 247±13 per 10^5 PBMC
[2]
  SFC/1×10^5 PBMC+Peptide, IVA12: 5±3 SFC/1×10^5 PBMC
  SFC/1×10^5 PBMC+Peptide, Isotype: 163±28 SFC/1×10^5 PBMC
  SFC/1×10^5 PBMC+Peptide, W6/32: 165±4 SFC/1×10^5 PBMC

## YILLKKILSSRFNQM [hypothetical protein 239–253, reference compound]
[9]
  Kd: 0.017 µM
[10]
  Kd: 0.025 µM

## YKYVKQNTLKLAT [HA306–318, reference compound]
[4]
  Kd: 0.108 µM
[5]
  Kd: 0.026 µM
[6]
  Kd: 0.053 µM
[7]
  Kd: 0.015 µM
[8]
  Kd: 0.003 µM
[9]
  Kd: 0.012 µM
[10]
  Kd: > 5 µM

## YPRYPGVRC [PF-145]
[11]
  Kd: 0.011 µM

## YVKQNTLKL [PF-152]
[11]
  Kd: 0.072 µM
[4]
  Kd: 1.2 µM
[5]
  Kd: > 5 µM
[6]
  Kd: 2.22 µM
[7]
  Kd: 0.226 µM
[8]
  Kd: 0.356 µM
[9]
  Kd: 0.405 µM
[10]
  Kd: > 5 µM
